According to patent publication US20250188085A1, “COMPOSITIONS AND METHODS FOR INHIBITION OF RAS” (THERAS, INC., priority 2022, published 2025):
Read-outs that look alike come from different tables or passages of the source.

Key:
[1] = target: T1, Avi-KRAS G12C (1-169) GppNHp/RAF1 RBD-3×FLAG (52-151) (Homo sapiens, UniProt P01116, G12C); assay: Raf1 RBD-KRAS G12C-GppNHp disruption (protein:protein interaction HTRF assay); type: biochemical
T1 construct: Avi-KRAS G12C (1-169) GppNHp/RAF1 RBD-3×FLAG (52-151)
Procedure: A protein: protein (PPI) interaction Homogeneous Time Resolved Fluorescence (HTRF) assay was used to determine the effectiveness of compounds of the present disclosure in disrupting KRAS G12C protein and effector (RAF1 or PIK3CA) binding.
The HTRF assay used the following reagents and proteins: 50 nM Avi-KRAS G12C Q25A (1-169) GppNHp/3×FLAG-PI3K CA (157-299); 50 nM Avi-KRAS G12C (1-169) GppNHp/RAF1 RBD-3×FLAG (52-151); 35 nM Avi-PI3K RBD-3×FLAG; Assay Buffer: 50 mM Tris pH 7.5, 100 mM NaCl, 5 mM MgCl2, 0.1% BSA, 0.01% Tween 20, 10% DMSO; Bead Buffer: 50 mM Tris pH 7.5, 0.01% Tween 20; Assay volume: 20 μL (384 well plate-low volume format); and Compound titration: 30-0.02 μM, 3× dilution series.
The HTRF assay employed the following protocol:
Compounds were dispensed in assay plate (384-well, Grenier Bione #784075) using Echo (model 555) with dose response settings: 200 nL final volume, titration from 100 μM as a 10-point dilution series. KRAS proteins were prepared in assay buffer, and dispensed on plates, 5 μL per well, then incubated for 1 h at room temperature, with 700 rpm shaking. RAF1 RBD and PI3K RBD CA were prepared in assay buffer, dispensed onto plates, 5 μL per well, and then incubated for 1 h at room temperature, with 700 rpm shaking. Reagent mix was then prepared and dispensed on plates, 10 μL per well, and then incubated for 1 h at room temperature, with 700 rpm shaking.
Plates were analyzed on an Envision plate reader using the following setting: Excitation 320 nm, Bandwidth 75 nm; Emission 615 nm, Bandwidth 85 nm; Gain 100%; Flashes 100; Lag 60 μs. Data was reported as percentage of activity, with DMSO as 100%. Data was plotted and analyzed using Prism 8.

pERK in NCI-H358 cells = assay: Cell-based pERK HTRF assay; details: 30 min incubation, read-out: pERK in NCI-H358 cell inhibition IC50
Procedure: pERK assays (Perkin Elmer) were used to determine the effectiveness of compounds of the present disclosure in disrupting KRAS G12C protein/effector signaling in cells.
On Day 1, cells (NCI-H358) were seeded into 96-well plates at 4×10^4 cells/well in complete growth media (RPMI, 10% FBS).
On Day 2, cells were treated with compounds at 0.25% DMSO. The source plate was created with compounds diluted in media at 5-fold the final assay concentration. The compounds were run in a 9-point concentration curve starting at 75 μM, with a 3-fold dilution between concentrations. 20 μL was transferred onto the cell plates (final volume in wells was 100 μL). Plates were harvested after 30 min incubation by aspirating media and adding kit-supplied 1× supplemented lysis buffer to all wells (75 μl per well). Plates were then placed on a plate shaker and incubated at 850 rpm for an additional 30 min.
Antibody mixture solution was prepared by diluting aliquoted d2 and Eu Cryptate antibodies 1:20 in kit supplied detection buffer, then mixed the diluted antibodies solutions (1:1 v:v). 4 μL of this solution was then added to a 384-well detection plate (Perkin Elmer; 6008230).
Samples were homogenized by pipetting up and down and then transferred (16 μL of cell lysates) from the 96-well cell culture plate to two wells of the HTRF 384-well detection plate containing the antibody solution. Plates were centrifuged (524 g for Imin) and allowed to incubate between 4 and 24 h at room temperature. Maximum signal is reached after 4 h incubation time and remains stable over a period of 24 hours. Therefore, readings can be made between 4 and 24 h of incubation. Plates were centrifuged again (524 g for Imin) and analyzed on the En Vision plate reader using the following settings: Excitation 320 nm, Bandwidth 75 nm; Emission 615 nm, Bandwidth 85 nm; Gain 100%; Flashes 100; Lag 60 μs.

[2] = target: T2, GppNHp-loaded KRAS4b (amino acids 1-169) G12C/C118S protein (Homo sapiens, UniProt P01116, C118S/G12C); assay: Covalent cysteine 12 modification by MALDI-TOF MS, GppNHp-loaded KRAS G12C; type: binding; details: 15 minutes reaction time point
T2 construct: KRAS4b (amino acids 1-169) G12C/C118S protein; made in house
Procedure: (§1) Reaction: 1 μM of GppNHp-, GTP-, or GDP-loaded KRAS4b (amino acids 1-169) G12C/C118S protein (produced in-house by Protein Expression Laboratory, FNLCR/Leidos Biomed) in 20 mM 4-(2-hydroxyethyl)-1-piperazineethanesulfonic acid (HEPES) buffer containing 150 mM NaCl, 1 mM MgCl2, pH 7.3 was prepared freshly before assay. Ten-μL aliquots of protein were dispensed onto low volume 384-well plate, then 375 nL DMSO, and 25 nL of tested compounds from 5 mM DMSO stocks were added to appropriate wells using ECHO 555 acoustic liquid handler (Labcyte Inc.). For each reaction/assay, three blanks were prepared by mixing 10 μL of protein solution with 400 nL DMSO. The contents of the wells were carefully mixed by aspiration, and then each plate was sealed with an adhesive cover, centrifuged at 2000 g for 1 minute, and kept in the dark at room temperature until 5 min, 15 min, 30 min, or 2 h collections.
(§2) Target pretreatment: Before each assay MALDI target (Bruker MPT 384 ground steel BC) was pre-treated by pipetting on each spot 0.75 μL of saturated sinapinic acid in acetonitrile (ACN).
(§3) Sample preparation: At collection time point, 2 μL of reaction mixtures were pipetted out into 20 μL MALDI matrix solution (saturated solution of sinapinic acid in 1:1 ACN:water solution containing 0.75% trifluoroacetic acid (TFA)) deposited on 384 well polypropylene plate. Resulting solution was mixed by aspiration, centrifuged at 2000 g for 1 minute, then 1 μL aliquots were dispensed on pre-treated MALDI target using Beckman Coulter Biomek FXP 96/384-Span-8 Laboratory Automation Workstation. Finally, the MALDI target was dried under mild vacuum to produce spots with fine crystalline structure.
(§4) Measurements: MALDI-TOF measurements were performed on a Bruker Daltonics rapiflex Tissuetyper TOF-TOF mass spectrometer using linear mode and mass range from 18.6 to 21.6 kDa. Detector gain was set to 3.3× (483 V), sample rate to 5 GS/s, real time smoothing to medium (175 MHz), laser smart beam pattern was set to: “MS Thin Layer M5”, and the laser frequency was 10000 Hz. Spectra were automatically collected using custom Auto Xecute method. Laser power was auto adjusted using fuzzy control. The peak selection range was set to be between 19000 and 21500 Da. Peak evaluation uses half width parameter set to be smaller than 40 Da for processed spectrograms (centroid peak detection; smoothed by SavitzkyGolay algorithm using 7 m/z width and 2 cycles; baseline was subtracted using median algorithm with flatness 1 and median level 0.01). Fuzzy control used Proteins/Oligonucleotides protocol with minimum half width 1/10 times above threshold. Up to 40000 satisfactory shots were collected in 10000 shot steps. Dynamic termination was implemented to finish data collection when peak signal/noise ratio was reaching value of 50.
(§5) Spectra processing: Spectra were smoothed by SavitzkyGolay algorithm using 7 m/z width and three cycles. Centroid peak detection algorithm was used with signal to noise threshold set to 6, relative intensity threshold 4%, peak width 10 m/z and median baseline subtraction using flatness of 1 and median level of 0.01. Peak intensity and area under the peak were evaluated and recorded for all peaks between 19,300 Da and 21,550 Da.
(§6) Calculation of percent modification: Percent modification was calculated as a ratio of peak height for protein modified by compound to sum of peak height of remaining protein plus peak height for protein modified by compound. If multiple modifications were observed each was calculated as a ratio of peak height for given modification versus sum of peak heights for all observed protein species. Data reported in Table 5 are from 15 minutes reaction time point.

[3] = target: T3, GDP-loaded KRAS4b (amino acids 1-169) G12C/C118S protein (Homo sapiens, UniProt P01116, C118S/G12C); assay: Covalent cysteine 12 modification by MALDI-TOF MS, GDP-loaded KRAS G12C; type: binding; details: 15 minutes reaction time point
T3 construct: KRAS4b (amino acids 1-169) G12C/C118S protein; made in house
Procedure: as §1, §2, §3, §4, §5, §6

SMILES | IC50 [1] [nM] | IC50 (pERK in NCI-H358 cells; Homo sapiens, NCI-H358, 0.5 h) [nM] | GppNHp-KRAS G12C percent of modification [2] | GDP-KRAS G12C percent of modification [3] | IC50 (pERK in NCI-H358 cells) [nM]
C=CC(=O)N1CC[C@@H](Oc2nc(OC[C@@]34CCCN3C[C@H](F)C4)nc3c(F)c(-c4ccc(F)c5oc(N)nc45)c(C(F)(F)F)cc23)C1 [Compound 36, 1-((3R)-3-((7-(2-amino-7-fluorobenzo[d]oxazol-4-yl)-8-fluoro-2-(((2R,7aS)-2-fluorotetrahydro-1H-pyrrolizin-7a (5H)-yl)methoxy)-6-(trifluoromethyl)quinazolin-4-yl)oxy)pyrrolidin-1-yl) prop-2-en-1-one] | ≤ 500 | ≤ 100 | C (10%≤modification <50%) | C (10%≤modification <50%) | –
C=CC(=O)N1CCC[C@@H](Oc2nc(OC[C@@H]3C[C@@H](F)CN3C)nc3c(F)c(-c4ccc(F)c5sc(N)nc45)c(C(F)(F)F)cc23)C1 (atropisomer, axis not shown) [Compound 21] | > 20000 | – | D (percent of modification <10%) | D (percent of modification <10%) | > 1000
C=CC(=O)N1CCC[C@@H](Oc2nc(OC[C@@H]3C[C@@H](F)CN3C)nc3c(F)c(-c4ccc(F)c5sc(N)nc45)c(C(F)(F)F)cc23)C1 (atropisomer, axis not shown) [Compound 20] | 5000 to 20000 | > 1000 | D (percent of modification <10%) | B (50≤percent of modification <70%) | –
C=CC(=O)N1CC[C@@H](Oc2nc(OC[C@@]34CCCN3C[C@H](F)C4)nc3c(F)c(-c4ccc(F)c5sc(N)nc45)c(Cl)cc23)C1 (atropisomer, axis not shown) [Compound 10] | 500 to 5000 | – | D (percent of modification <10%) | D (percent of modification <10%) | 100 to 1000
C=CC(=O)N1CC(Oc2nc(OC[C@@]34CCCN3C[C@H](F)C4)nc3c(F)c(-c4ccc(F)c5sc(N)nc45)c(C(F)(F)F)cc23)C1 [Compound 7, 1-(3-((7-(2-amino-7-fluorobenzo[d]thiazol-4-yl)-8-fluoro-2-(((2R,7aS)-2-fluorotetrahydro-1H-pyrrolizin-7a (5H)-yl)methoxy)-6-(trifluoromethyl)quinazolin-4-yl)oxy)azetidin-1-yl) prop-2-en-1-one] | > 20000 | > 1000 | D (percent of modification <10%) | D (percent of modification <10%) | –
C=CC(=O)N1C[C@H](Oc2nc(OC[C@@]34CCCN3C[C@H](F)C4)nc3c(F)c(-c4ccc(F)c5sc(N)nc45)c(C(F)(F)F)cc23)C[C@H]1C (atropisomer, axis not shown) [Compound 37] | ≤ 500 | ≤ 100 | A (percent of modification ≥70%) | A (percent of modification ≥70%) | –
C=CC(=O)N1C[C@H](Oc2nc(OC[C@@]34CCCN3C[C@H](F)C4)nc3c(F)c(-c4ccc(F)c5sc(N)nc45)c(C(F)(F)F)cc23)C[C@@H]1C (atropisomer, axis not shown) [Compound 32] | ≤ 500 | – | C (10%≤modification <50%) | A (percent of modification ≥70%) | ≤ 100
C=CC(=O)N1C[C@@H](C)[C@@H](Oc2nc(OC[C@@]34CCCN3C[C@H](F)C4)nc3c(F)c(-c4ccc(F)c5sc(N)nc45)c(C(F)(F)F)cc23)C1 (atropisomer, axis not shown) [Compound 27] | ≤ 500 | ≤ 100 | C (10%≤modification <50%) | A (percent of modification ≥70%) | –
C=CC(=O)N1CC(Oc2nc(OC[C@@]34CCCN3C[C@H](F)C4)nc3c(F)c(-c4ccc(F)c5sc(N)nc45)c(C(F)(F)F)cc23)[C@@H](C)C1 (stereo partly shown) [Compound 35] | 500 to 5000 | – | D (percent of modification <10%) | C (10%≤modification <50%) | 100 to 1000
CC#CC(=O)N1CC(Oc2nc(OC[C@@H]3CCCN3C)nc3c(F)c(-c4ccc(F)c5sc(N)nc45)c(Cl)cc23)C1 [Compound 2] | 500 to 5000 | 100 to 1000 | D (percent of modification <10%) | B (50≤percent of modification <70%) | –
